Test results published in ChEMBL document CHEMBL1201862, “PubChem BioAssay data set” (2004).
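Growth conditions: 96-well plates. Treatment: test compound, 48 hours, 5 concentrations. Analysis: linear interpolation between bracketing concentrations; unreached endpoints set to highest concentration. GI50 marks 50% less growth.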 Activity calls are given as the source filed them. Rule as the data show it: active = GI50 up to about 1.1 µM and inactive = higher.

Experiments:
Test in all cases: inhibition of tumour cell growth, NCI panel, 48 h
HCT-15 = test system: HCT-15
M14 = test system: M14
HCT-116 = test system: HCT-116
A549 = test system: A549
EKVX = test system: EKVX
K562 = test system: K562
LOX IMVI = test system: LOX IMVI
RXF 393 = test system: RXF 393
MDA-MB-231 = test system: MDA-MB-231
COLO 205 = test system: COLO 205
NCI-H522 = test system: NCI-H522
KM12 = test system: KM12
NCI-H226 = test system: NCI-H226
SR = test system: SR
ACHN = test system: ACHN
SNB-19 = test system: SNB-19
MCF7 = test system: MCF7
NCI-H460 = test system: NCI-H460
PC-3 = test system: PC-3
HL-60 = test system: HL-60

Row | SMILES | GI50 (HCT-15) [µM] | GI50 (M14) | GI50 (HCT-116) | GI50 (A549) | GI50 (EKVX) | GI50 (K562) | GI50 (LOX IMVI) | GI50 (RXF 393) | GI50 (MDA-MB-231) | GI50 (COLO 205) | GI50 (NCI-H522) | GI50 (KM12) | GI50 (NCI-H226) | GI50 (SR) | GI50 (ACHN) | GI50 (SNB-19) | GI50 (MCF7) | GI50 (NCI-H460) | GI50 (PC-3) | GI50 (HL-60)
1 | COc1cc2c(cc1O)NC(=S)[C@@H]1CCCN1C2=O | > 100 | > 100 µM (inactive) | > 100 µM (inactive) | > 100 µM (inactive) | > 100 µM (inactive) | > 100 µM (inactive) | > 100 µM (inactive) | > 100 µM (inactive) | > 100 µM (inactive) | > 100 µM (inactive) | > 100 µM (inactive) | > 100 µM (inactive) | > 100 µM (inactive) | 50.1 µM (inactive) | > 100 µM (inactive) | > 100 µM (inactive) | > 100 µM (inactive) | > 100 µM (inactive) | > 100 µM (inactive) | –
2 | CCOC(=O)/C(C(=O)Nc1cccc(C(F)(F)F)c1)=C(/N)N1CCCC1 | > 100 | > 100 µM (inactive) | > 100 µM (inactive) | > 100 µM (inactive) | > 100 µM (inactive) | > 100 µM (inactive) | > 100 µM (inactive) | 20.9 µM (inactive) | 42.4 µM (inactive) | > 100 µM (inactive) | > 100 µM (inactive) | > 100 µM (inactive) | 29.2 µM (inactive) | – | > 100 µM (inactive) | > 100 µM (inactive) | 63 µM (inactive) | > 100 µM (inactive) | > 100 µM (inactive) | > 100 µM (inactive)
3 | CCCC(=O)OCOC(=O)N(C)/N=N/c1ccc(C(=O)OCC)cc1 | 19.9 | 24.3 µM (inactive) | 21.1 µM (inactive) | 19.3 µM (inactive) | 37.9 µM (inactive) | 47.6 µM (inactive) | 10.7 µM (inactive) | 16.3 µM (inactive) | 36.5 µM (inactive) | 18.7 µM (inactive) | 17.3 µM (inactive) | 26.4 µM (inactive) | 92.7 µM (inactive) | 23.7 µM (inactive) | 17.5 µM (inactive) | 68.9 µM (inactive) | 17.8 µM (inactive) | 8.97 µM (inactive) | 25.1 µM (inactive) | –
4 | CC(C)C1=C(Cc2ccccc2)C(=O)O/C1=C\c1ccc(O)c(Cl)c1 | 16 | 17.5 µM (inactive) | 15.5 µM (inactive) | 15.1 µM (inactive) | 16.6 µM (inactive) | 16 µM (inactive) | 18.4 µM (inactive) | 17.5 µM (inactive) | 16.2 µM (inactive) | 20.4 µM (inactive) | – | 18.1 µM (inactive) | 16.6 µM (inactive) | 10.4 µM (inactive) | 14.9 µM (inactive) | 11.5 µM (inactive) | 15.7 µM (inactive) | 17.4 µM (inactive) | 17.9 µM (inactive) | 15.7 µM (inactive)
5 | CC12CCC(/C(=N/c3cc(C(F)(F)F)cc(C(F)(F)F)c3)C1=O)C2(C)C (configuration not stated) | 29.1 | 30.6 µM (inactive) | 27.7 µM (inactive) | 31.9 µM (inactive) | 78.7 µM (inactive) | 29.6 µM (inactive) | 15.2 µM (inactive) | 12.3 µM (inactive) | 36.9 µM (inactive) | 19.1 µM (inactive) | – | 26.4 µM (inactive) | 86.7 µM (inactive) | 18.8 µM (inactive) | > 100 µM (inactive) | 49.4 µM (inactive) | 28.4 µM (inactive) | 33.4 µM (inactive) | 27.5 µM (inactive) | 1.04 µM (active)
6 | CC[C@]1(Cc2ccc(OC)c(OC)c2)CN(S(=O)(=O)c2ccc(C)cc2)C[C@@H]1OC(C)=O | > 100 | > 100 µM (inactive) | – | 54.8 µM (inactive) | > 100 µM (inactive) | > 100 µM (inactive) | > 100 µM (inactive) | > 100 µM (inactive) | > 100 µM (inactive) | > 100 µM (inactive) | – | > 100 µM (inactive) | > 100 µM (inactive) | > 100 µM (inactive) | > 100 µM (inactive) | > 100 µM (inactive) | > 100 µM (inactive) | > 100 µM (inactive) | 75.7 µM (inactive) | > 100 µM (inactive)
7 | O=C1N/C(=N/N=C/c2cccs2)N/C1=C\c1ccco1 | > 100 | 8.57 µM (inactive) | 35.5 µM (inactive) | 33.7 µM (inactive) | > 100 µM (inactive) | 37.4 µM (inactive) | 21.6 µM (inactive) | 90.6 µM (inactive) | > 100 µM (inactive) | 35.5 µM (inactive) | 7.98 µM (inactive) | 34 µM (inactive) | 21.3 µM (inactive) | – | > 100 µM (inactive) | 81.5 µM (inactive) | 30.3 µM (inactive) | 23.2 µM (inactive) | 18.9 µM (inactive) | 31.4 µM (inactive)
